The nature of series [1]: Thioflavin T fibrillation assay. In kind it is physicochemical. As to conditions: for fibril-forming tendency: ThT assay, 1 mg/mL, pH 4.0, 37 °C, compared to pramlintide; for Time taken to detect increase in fluorescence intensity: ThT fibrillation assay, peptide 1 mg/mL in 25 mM sodium acetate buffer pH 4.0, 6 days at 37 °C with shaking, >144 h = no increase. Summed up: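 Peptides at 1 mg/mL in 25 mM sodium acetate pH 4.0 with ThT (from 0.25 mM stock), incubated 6 days at 37 °C with intermittent orbital shaking at 500–750 rpm. Fluorescence (ex 444/em 480 nm) read every 30 min; value is average time to a rise in baseline-corrected signal.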

A short description of another series: in vivo. To be noted: male, Sprague-Dawley, rat, 20 nmol/kg.

Numbered stars: 1 amine (or outer) side, 2 acyl side, 3 side chain; on linkers, the order of the positions; unused ones are H or OH. Bridge positions count the residues as written; N and C are the ends. Square brackets hold non-standard residues; d marks the D form. Side chains are listed from the residue outwards. Peptide text beside a SMILES is read from it. * marks the point of attachment. C20 diacid = O=C(O)CCCCCCCCCCCCCCCCCCC(=O)*; C18 diacid = O=C(O)CCCCCCCCCCCCCCCCC(=O)*; γGlu = O=C(O)[C@H](CCC(=O)[*:2])N[*:1]; αMeF = C[C@](N)(Cc1ccccc1)C(=O)O; Dab = NCC[C@H](N)C(=O)O; Aib = CC(C)(N)C(=O)O

Usually half-life stands for the time needed for the level to fall by half in the phase considered. As to `CC[C@H](C)[C@H](NC(=O)[C@@H]1CCCN1C(=O)CNC(=O)[C@H](Cc1ccccc1)NC(=O)[C@H](CC(N)=O)NC(=O)[C@H](CC(N)=O)NC(=O)[C@H](CO)NC(=O)[C@H](CO)NC(=O)[C@H](Cc1c[nH]cn1)NC(=O)[C@@H](NC(=O)[C@H](CC(C)C)NC(=O)[C@H](Cc1ccccc1)NC(=O)[C@H](CC(N)=O)NC(=O)[C@H](C)NC(=O)[C@H](CC(C)C)NC(=O)[C@H](CCCNC(=N)N)NC(=O)[C@H](CCC(N)=O)NC(=O)[C@@H](NC(=O)[C@H](C)NC(=O)[C@@H]1CSSC[C@H](NC(=O)[C@H](CCCCN)NC(=O)CC[C@H](NC(=O)CCCCCCCCCCCCCCCCC(=O)O)C(=O)O)C(=O)N[C@@H](CC(N)=O)C(=O)N[C@@H]([C@@H](C)O)C(=O)N[C@@H](C)C(=O)N[C@@H]([C@@H](C)O)C(=O)N1)[C@@H](C)O)C(C)C)C(=O)N[C@@H](CC(C)C)C(=O)N1CCC[C@H]1C(=O)N1CCC[C@H]1C(=O)N[C@H](C(=O)N[C@@H](CC(N)=O)C(=O)N[C@H](C(=O)NCC(=O)N[C@@H](CO)C(=O)N[C@@H](CC(N)=O)C(=O)N[C@H](C(=O)N[C@@H](Cc1ccc(O)cc1)C(N)=O)[C@@H](C)O)C(C)C)[C@@H](C)O` [Peptide 3] ({C18 diacid-γGlu}-KCNTATCATQRLANFLVHSSNNFGPILPPTNVGSNTY-NH2; disulfide 2-7), in series [1], the fibril-forming tendency entry was “increases the fibril-forming tendency” and the “Time taken to detect increase in fluorescence intensity” value (“Time taken to detect increase” below) is recorded as under 5 h. The half-life in “in vivo” (iv) was 14 h.

`CC[C@H](C)[C@H](NC(=O)[C@H](C)NC(=O)[C@@H]1CCCN1C(=O)[C@H](Cc1ccccc1)NC(=O)[C@H](CC(N)=O)NC(=O)[C@H](CCN)NC(=O)[C@H](CO)NC(=O)[C@H](CO)NC(=O)[C@H](Cc1c[nH]cn1)NC(=O)[C@@H](NC(=O)[C@H](CC(C)C)NC(=O)[C@H](Cc1ccccc1)NC(=O)[C@H](CC(N)=O)NC(=O)[C@H](C)NC(=O)[C@H](CC(C)C)NC(=O)[C@H](CCCNC(=N)N)NC(=O)[C@H](CCC(N)=O)NC(=O)[C@@H](NC(=O)[C@H](C)NC(=O)[C@@H]1CSSC[C@H](NC(=O)[C@@H](N)CCCCNC(=O)CC[C@H](NC(=O)CC[C@H](NC(=O)CCCCCCCCCCCCCCCCC(=O)O)C(=O)O)C(=O)O)C(=O)N[C@@H](CC(N)=O)C(=O)N[C@@H]([C@@H](C)O)C(=O)N[C@@H](C)C(=O)N[C@@H]([C@@H](C)O)C(=O)N1)[C@@H](C)O)C(C)C)C(=O)N[C@@H](CC(C)C)C(=O)N[C@@H](CO)C(=O)N1CCC[C@H]1C(=O)N[C@H](C(=O)N[C@@H](CC(N)=O)C(=O)N[C@H](C(=O)NCC(=O)N[C@@H](CO)C(=O)N[C@@H](CC(N)=O)C(=O)N[C@H](C(=O)N[C@@H](Cc1ccc(O)cc1)C(N)=O)[C@@H](C)O)C(C)C)[C@@H](C)O` [Peptide 8, K(γE-γE-C18diacid)[CNTATC]ATQRLANFLVHSS(Dab)NFPAILSPTNVGSNTY-amide] (H-K([γGlu-γGlu-C18 diacid])CNTATCATQRLANFLVHSS[Dab]NFPAILSPTNVGSNTY-NH2; disulfide 2-7): the “Time taken to detect increase” value in series [1] is 7 h. Besides, the half-life in “in vivo” (iv) is 4.2 h; in the series “in vivo” (sc), 6.2 h.

Consider `CC[C@H](C)[C@H](NC(=O)[C@H](C)NC(=O)[C@@H]1CCCN1C(=O)[C@H](Cc1ccccc1)NC(=O)[C@H](CC(N)=O)NC(=O)C(C)(C)NC(=O)[C@H](CO)NC(=O)[C@H](CO)NC(=O)[C@H](Cc1c[nH]cn1)NC(=O)[C@@H](NC(=O)[C@H](CC(C)C)NC(=O)[C@H](Cc1ccccc1)NC(=O)[C@H](CC(N)=O)NC(=O)[C@H](C)NC(=O)[C@H](CC(C)C)NC(=O)[C@H](CCCNC(=N)N)NC(=O)[C@H](CCC(N)=O)NC(=O)[C@@H](NC(=O)[C@H](C)NC(=O)[C@@H]1CSSC[C@H](NC(=O)[C@@H](N)CCCCNC(=O)CC[C@H](NC(=O)CC[C@H](NC(=O)CCCCCCCCCCCCCCCCC(=O)O)C(=O)O)C(=O)O)C(=O)N[C@@H](CC(N)=O)C(=O)N[C@@H]([C@@H](C)O)C(=O)N[C@@H](C)C(=O)N[C@@H]([C@@H](C)O)C(=O)N1)[C@@H](C)O)C(C)C)C(=O)N[C@@H](CC(C)C)C(=O)N[C@@H](CO)C(=O)N1CCC[C@H]1C(=O)N[C@H](C(=O)N[C@@H](CC(N)=O)C(=O)N[C@H](C(=O)NCC(=O)N[C@@H](CO)C(=O)N[C@@H](CC(N)=O)C(=O)N[C@H](C(=O)N[C@@H](Cc1ccc(O)cc1)C(N)=O)[C@@H](C)O)C(C)C)[C@@H](C)O` [Peptide 9, K(γE-γE-C18diacid)[CNTATC]ATQRLANFLVHSS(Aib)NFPAILSPTNVGSNTY-amide] (H-K([γGlu-γGlu-C18 diacid])CNTATCATQRLANFLVHSS[Aib]NFPAILSPTNVGSNTY-NH2; disulfide 2-7), for which the “Time taken to detect increase” value in series [1] came to 7 h. The half-life is 5.9 h in the series “in vivo” (iv) and 7.8 h in the series “in vivo” (sc).

Turning to `CC[C@H](C)[C@H](NC(=O)[C@@H]1CCCN1C(=O)CNC(=O)[C@](C)(Cc1ccccc1)NC(=O)[C@H](CC(N)=O)NC(=O)[C@H](CC(N)=O)NC(=O)[C@H](CO)NC(=O)[C@H](CO)NC(=O)[C@H](Cc1c[nH]cn1)NC(=O)[C@@H](NC(=O)[C@H](CC(C)C)NC(=O)[C@H](Cc1ccccc1)NC(=O)[C@H](CC(N)=O)NC(=O)[C@H](C)NC(=O)[C@H](CC(C)C)NC(=O)[C@H](CCCNC(=N)N)NC(=O)[C@H](CCC(N)=O)NC(=O)[C@@H](NC(=O)[C@H](C)NC(=O)[C@@H]1CSSC[C@H](NC(=O)[C@@H](N)CCCCNC(=O)CC[C@H](NC(=O)CC[C@H](NC(=O)CCCCCCCCCCCCCCCCC(=O)O)C(=O)O)C(=O)O)C(=O)N[C@@H](CC(N)=O)C(=O)N[C@@H]([C@@H](C)O)C(=O)N[C@@H](C)C(=O)N[C@@H]([C@@H](C)O)C(=O)N1)[C@@H](C)O)C(C)C)C(=O)N[C@@H](CC(C)C)C(=O)N1CCC[C@H]1C(=O)N1CCC[C@H]1C(=O)N[C@H](C(=O)N[C@@H](CCCNC(=N)N)C(=O)N[C@H](C(=O)NCC(=O)N[C@@H](CO)C(=O)N[C@@H](CC(N)=O)C(=O)N[C@H](C(=O)N[C@@H](Cc1ccc(O)cc1)C(N)=O)[C@@H](C)O)C(C)C)[C@@H](C)O` [Peptide 24, K(γE-γE-C18diacid)[CNTATC]ATQRLANFLVHSSNN(αMePhe)GPILPPTRVGSNTY-amide] (H-K([γGlu-γGlu-C18 diacid])CNTATCATQRLANFLVHSSNN[αMeF]GPILPPTRVGSNTY-NH2; disulfide 2-7; N-terminus assumed), in series [1], the “Time taken to detect increase” value is recorded as over 144 h. The half-life in “in vivo” (iv) was 9.4 h; in “in vivo” (sc) it was 10.5 h.

On to `CC[C@H](C)[C@H](NC(=O)[C@@H]1CCCN1C(=O)CNC(=O)[C@H](Cc1ccccc1)NC(=O)[C@H](CC(N)=O)NC(=O)C(C)(C)NC(=O)[C@H](CO)NC(=O)[C@H](CO)NC(=O)[C@H](Cc1c[nH]cn1)NC(=O)[C@@H](NC(=O)[C@H](CC(C)C)NC(=O)[C@H](Cc1ccccc1)NC(=O)[C@H](CC(N)=O)NC(=O)[C@H](C)NC(=O)[C@H](CC(C)C)NC(=O)[C@H](CCCNC(=N)N)NC(=O)[C@H](CCC(N)=O)NC(=O)[C@@H](NC(=O)[C@H](C)NC(=O)[C@@H]1CSSC[C@H](NC(=O)[C@H](CCCCN)NC(=O)[C@@H](N)CCCCNC(=O)CC[C@H](NC(=O)CCCCCCCCCCCCCCCCC(=O)O)C(=O)O)C(=O)N[C@@H](CC(N)=O)C(=O)N[C@@H]([C@@H](C)O)C(=O)N[C@@H](C)C(=O)N[C@@H]([C@@H](C)O)C(=O)N1)[C@@H](C)O)C(C)C)C(=O)N[C@@H](CC(C)C)C(=O)N1CCC[C@H]1C(=O)N1CCC[C@H]1C(=O)N[C@H](C(=O)N[C@@H](Cc1c[nH]cn1)C(=O)N[C@H](C(=O)NCC(=O)N[C@@H](CO)C(=O)N[C@@H](CC(N)=O)C(=O)N[C@H](C(=O)N[C@@H](Cc1ccc(O)cc1)C(N)=O)[C@@H](C)O)C(C)C)[C@@H](C)O` [Peptide 40, K(γE-C18diacid)K[CNTATC]ATQRLANFLVHSS(Aib)NFGPILPPTHVGSNTY-amide] (H-K([γGlu-C18 diacid])KCNTATCATQRLANFLVHSS[Aib]NFGPILPPTHVGSNTY-NH2; disulfide 3-8), for which the “Time taken to detect increase” value in series [1] is given as over 144 h. In addition, the values for the half-life in the series “in vivo” (iv) and in “in vivo” (sc) were 7.4 h and 8.1 h, respectively.

With `CC[C@H](C)[C@H](NC(=O)[C@@H]1CCCN1C(=O)CNC(=O)[C@H](Cc1ccccc1)NC(=O)[C@H](CC(N)=O)NC(=O)[C@H](CC(N)=O)NC(=O)[C@H](CO)NC(=O)[C@H](CO)NC(=O)[C@H](Cc1c[nH]cn1)NC(=O)[C@@H](NC(=O)[C@H](CC(C)C)NC(=O)[C@H](Cc1ccccc1)NC(=O)[C@H](CC(N)=O)NC(=O)[C@H](C)NC(=O)[C@H](CC(C)C)NC(=O)[C@H](CCCNC(=N)N)NC(=O)[C@H](CCC(N)=O)NC(=O)[C@@H](NC(=O)[C@H](C)NC(=O)[C@@H]1CSSC[C@H](NC(=O)[C@H](CCCCN)NC(=O)CC[C@H](NC(=O)CCCCCCCCCCCCCCCCCCC(=O)O)C(=O)O)C(=O)N[C@@H](CC(N)=O)C(=O)N[C@@H]([C@@H](C)O)C(=O)N[C@@H](C)C(=O)N[C@@H]([C@@H](C)O)C(=O)N1)[C@@H](C)O)C(C)C)C(=O)N[C@@H](CC(C)C)C(=O)N1CCC[C@H]1C(=O)N1CCC[C@H]1C(=O)N[C@H](C(=O)N[C@@H](CC(N)=O)C(=O)N[C@H](C(=O)NCC(=O)N[C@@H](CO)C(=O)N[C@@H](CC(N)=O)C(=O)N[C@H](C(=O)N[C@@H](Cc1ccc(O)cc1)C(N)=O)[C@@H](C)O)C(C)C)[C@@H](C)O` [Peptide 112] ({C20 diacid-γGlu}-KCNTATCATQRLANFLVHSSNNFGPILPPTNVGSNTY-NH2; disulfide 2-7), in series [1], the fibril-forming tendency entry is on record as “increases the fibril-forming tendency” and the “Time taken to detect increase” value is given as under 5 h. This molecule showed a half-life in “in vivo” (iv) of 11.8 h. This molecule had a half-life in “in vivo” (sc) of 19 h.

For the origin of these results see patent US20240067693A1, “POLYPEPTIDES AND USES THEREOF” (MEDIMMUNE LIMITED, priority 2020, published 2024).
